In patent publication US20030109035A1, “Method of forming vertebrate pancreas in vitro” (priority 2000, published 2003):

How the values were obtained:
[1] = test system: Xenopus embryos at developmental stage 22 to 32; settings: cited from earlier work
[2] = test system: blastopore upper lip cell of Xenopus early gastrula; settings: cited from earlier work
[3] = test system: whole embryos; test: Retinoic acid treatment of whole embryos from blastula to gastrula; assay type: in vivo, Xenopus
Source text: Moreover, there has been a report regarding the effect of retinoic acid to the endoderm of Xenopus embryo (Zeynali, B. and Dixon, K. E.; Dev. Genes. Evol. 208, 318-326, 1998). […] The present inventors conducted retinoic acid treatment to the whole embryos from the period of blastula to gastrula. […] However, the physical relationship of each of the endodermal organs was abnormal and the endodermal organs were formed aggregately in the anterior and posterior axis direction.

[4] = test system: insulin and XlHbox8; test: RT-PCR expression of pancreas-specific genes in explants; assay type: cell-based, Xenopus laevis; settings: treated with one agent alone, cultured three days
Source text: C., and the expression of insulin that is a pancreas-specific gene (Henry, G. L. et al.; Development 122, 1007-1015, 1996) and XlHbox8 (Lemaire, P. et al.; Development 125, 2371-2380, 1998) were examined by the method as previously described (Yokota, C. et al.; J. Biochem. 123, 339-346, 1998). […] EF-1α (elongation factor 1α) was used as a loading control. The combination of primers of each gene in PCR reaction that were used is as follows: insulin [insulin-[…] No. 1), insulin-[…] No. 2)], […] No. 3), […] No. 4)], […] No. 5), and […] No. 6)]. Seventy-six μl of DDW, 10 μl of 10×Ex buffer, 8 μl of 2.5 mM dNTPs mix, 0.5 μl of 5[…] 0.5 μl of 100 μM of each of the above-mentioned primers were added to 5 μl of the above-mentioned cDNA (20 ng/μl), and PCR reaction was conducted with the total amount of 100 μl. The thermal cycle program, which is a cycle to denature for four minutes at 94° C. only at the first time, followed by thermal denaturation for 30 seconds at 94° C., […], was repeated for 23 to 30 times. Ultimately, annealing was conducted for nine minutes at 72° C. […] As a negative control, EF-1α wherein RT-PCR was conducted under a condition where the reverse transcription factor had been eliminated was used.

[5] = test system: pieces of presumptive ectoderm of Xenopus late blastula; test: Simultaneous and continuous treatment of pieces of presumptive ectoderm with activin/retinoic acid, tissues that differentiate; assay type: cell-based, Xenopus laevis; settings: continuous, activin 100 ng/ml, retinoic acid 0 M, 10 samples
Description: (§1) The dorsal lymph sacs of adult male and female Xenopus laevis were each injected with 600 IU of hCG (human chorionic gonadotropin; Gestron; Denka Seiyaku, Japan), and fertilized eggs were obtained by mating these Xenopuses. These late blastulas [developmental stage 9] were dejellied in Steinberg's solution (SS: 58.00 mM NaCl, 0.67 mM KCl, 0.34 mM Ca(NO3)2, 0.83 mM MgSO4, 3.00 mM HEPES and 100 mg/l kanamycin sulfate; pH 7.4) containing 4.5% cysteine hydrochloride (pH 7.8), and the vitelline membranes were removed in the Steinberg's solution by using a pair of watchmaker's tweezers. The presumptive ectoderm portion of Xenopus late blastula thus obtained was cut into a size of 0.4 mm×0.4 mm by using a tungsten needle.
(§2) Human recombinant activin A (Ajinomoto Co., Inc.) was dissolved in Steinberg's solution containing 0.1% bovine serum albumin (BSA) to a concentration of 100 ng/ml, and an activin solution was prepared.
Based on the results from Example 2, since the effect of retinoic acid treatment was found in the differential pattern of mesodermal tissues, it can be considered that retinoic acid acted in the period when the fate of the mesoderm is determined to each mesodermal tissue (notochord, muscle, pronephric tubule and the like, for example). […] C. for 10 days (see continuous treatment in FIG. 1). These explants that had been cultured were stained in the same manner as in Example 2, and the tissues that differentiated were observed and examined by using a light microscope.

[6] = test system: pieces of presumptive ectoderm of Xenopus late blastula; test: Simultaneous one-hour treatment of pieces of presumptive ectoderm with activin/retinoic acid, tissues that differentiate (light microscopy); assay type: cell-based, Xenopus laevis
Description: as §1, §2
C. (see temporary treatment in FIG. 1). These explants that had been cultured were fixed with Bouin's solution, followed by dehydration treatment of a series of ethanol and xylene, and these explants were embedded in paraffin and sliced into 6 μm sections. These sections were stained with hematoxylin and eosin, and the tissues that differentiated were observed and examined under a light microscope. Further, the untreated pieces of presumptive ectoderm were also observed and examined in the same manner by using a light microscope.

[7] = test system: pieces of presumptive ectoderm of Xenopus late blastula; test: Time lag treatment of pieces of presumptive ectoderm with activin then retinoic acid, tissues that differentiate; assay type: cell-based, Xenopus laevis; settings: activin 100 ng/ml alone 1 h, 65 samples
Description: as §1
A time lag was provided between the treatment with activin and treatment with retinoic acid, so that the action of retinoic acid can be received for the first time, after the differentiation to dorsal mesoderm/anterior endoderm had been determined by action of activin. […] After the elapse of the time lag, the pieces of presumptive ectoderm were left at rest in retinoic acid solution at 10^−4 M for one hour, washed two times with Steinberg's solution containing 0.1% BSA, and then cultured in Steinberg's solution containing 0.1% BSA at 20° C. for ten days (see time lag treatment in FIG. 1). These explants that had been cultured were stained in the same manner as described in Example 2, and the tissues that differentiated were observed and examined under a light microscope.

[8] = test system: Xenopus animal cap cells; settings: cited from earlier work
[9] = activin 100 ng/ml, retinoic acid 0 M, 1 h, 31 samples

Compound: CC1=C(/C=C/C(C)=C/C=C/C(C)=C/C(=O)O)C(C)(C)CCC1 [retinoic acid, All-trans retinoic acid]
- expression of XlHbox8 [1]: no effect is found in the expression of XlHbox8
- formation of pancreas [1]: formed normally
- morphology of the digestive organs [1]: the morphology of the digestive organs such as intestines, liver and stomach become abnormal
- pancreas formation [2]: enables pancreas formation with high efficiency
- morphology of treated embryos [3]: head-deficient embryos
- induction of pancreas in vivo ([3]; whole embryos treated from blastula to gastrula): pancreas was not induced specifically in vivo
- expression of insulin and XlHbox8 [4]: expression of these genes was not found

Compound: activin: Human recombinant activin A (Ajinomoto Co., Inc.)
- Atypical epidermis differentiated in explants [5]: 0(0) number (percentage)
- Cartilage differentiated in explants [5]: 1(10) number (percentage)
- Coelomic epithelium differentiated in explants [5]: 4(40) number (percentage)
- Epidermis differentiated in explants [5]: 9(90) number (percentage)
- Intestinal epithelium differentiated in explants [5]: 0(0) number (percentage)
- Mesenchyme differentiated in explants [5]: 9(90) number (percentage)
- Muscle differentiated in explants [5]: 10(100) number (percentage)
- Neural tissue differentiated in explants [5]: 10(100) number (percentage)
- Notochord differentiated in explants [5]: 3(30) number (percentage)
- Pancreas differentiated in explants [5]: 0(0) number (percentage)
- Pharyngeal epithelium differentiated in explants [5]: 5(50) number (percentage)
- Pronephric tubule differentiated in explants [5]: 0(0) number (percentage)
- Yolk-rich cell differentiated in explants [5]: 5(50) number (percentage)
- expression of insulin and XlHbox8 [4]: induced only a little
- Atypical epidermis differentiated in explants [6, 9]: 0(0) number (percentage)
- Cartilage differentiated in explants [6, 9]: 5(16) number (percentage)
- Coelomic epithelium differentiated in explants [6, 9]: 15(48) number (percentage)
- Epidermis differentiated in explants [6, 9]: 30(97) number (percentage)
- Intestinal epithelium differentiated in explants [6, 9]: 0(0) number (percentage)
- Mesenchyme differentiated in explants [6, 9]: 31(100) number (percentage)
- Muscle differentiated in explants [6, 9]: 25(81) number (percentage)
- Neural tissue differentiated in explants [6, 9]: 12(39) number (percentage)
- Notochord differentiated in explants [6, 9]: 4(13) number (percentage)
- Pancreas differentiated in explants [6, 9]: 0(0) number (percentage)
- Pharyngeal epithelium differentiated in explants [6, 9]: 12(39) number (percentage)
- Pronephric tubule differentiated in explants [6, 9]: 7(23) number (percentage)
- Yolk-rich cell differentiated in explants [6, 9]: 18(58) number (percentage)
- tissues that differentiated ([6]; treated only with activin (100 ng/ml)): dorsal mesodermal and anterior endodermal tissues such as notochord, muscle, pharyngeal epithelium and the like differentiated
- Atypical epidermis differentiated in explants [7]: 0(0) number (percentage)
- Cartilage differentiated in explants [7]: 12(18) number (percentage)
- Coelomic epithelium differentiated in explants [7]: 28(43) number (percentage)
- Epidermis differentiated in explants [7]: 59(91) number (percentage)
- Intestinal epithelium differentiated in explants [7]: 3(5) number (percentage)
- Mesenchyme differentiated in explants [7]: 59(91) number (percentage)
- Muscle differentiated in explants [7]: 37(57) number (percentage)
- Neural tissue differentiated in explants [7]: 32(49) number (percentage)
- Notochord differentiated in explants [7]: 34(52) number (percentage)
- Pancreas differentiated in explants [7]: 0(0) number (percentage)
- Pharyngeal epithelium differentiated in explants [7]: 37(57) number (percentage)
- Pronephric tubule differentiated in explants [7]: 5(8) number (percentage)
- Yolk-rich cell differentiated in explants [7]: 29(45) number (percentage)
- induction of mesodermal tissues [8]: induces most mesodermal tissues such as notochord, muscle, mesenchyme and coelomic epithelium, dose-dependently
